Source: EP1140919B1, “1,4-DISUBSTITUTED CYCLOHEXANE DERIVATIVES FOR THE TREATMENT OF DEPRESSION” (Wyeth, priority 1999, dated 2000)

What was measured:
[1] = biological target: T1, human 5-HT1A receptor (Homo sapiens, UniProt P08908); test: 5-HT1A receptor binding assay with [3H]8-OH-DPAT on CHO cell membranes; conditions: @ 1000 nM, 5-HT1A.CHO cell membranes
T1 construct: expressed in transfected cells
T1 sequence (P08908 1-422): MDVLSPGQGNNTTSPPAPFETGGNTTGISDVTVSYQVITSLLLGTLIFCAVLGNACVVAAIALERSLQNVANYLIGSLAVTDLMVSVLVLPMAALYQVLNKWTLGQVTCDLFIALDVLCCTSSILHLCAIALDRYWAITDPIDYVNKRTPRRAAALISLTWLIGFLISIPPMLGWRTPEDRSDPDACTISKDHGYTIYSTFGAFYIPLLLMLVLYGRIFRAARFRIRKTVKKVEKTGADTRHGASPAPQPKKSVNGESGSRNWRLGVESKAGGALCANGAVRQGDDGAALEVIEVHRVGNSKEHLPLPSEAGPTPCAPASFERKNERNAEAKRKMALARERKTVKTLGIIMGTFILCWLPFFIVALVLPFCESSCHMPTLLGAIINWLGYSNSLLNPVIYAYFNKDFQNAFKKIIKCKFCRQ
Method: The PCR cloning of the human 5-HT1A receptor subtype from a human genomic library has been described previously by Chanda et al., Mol. Pharmacol., 43:516 (1993). A stable Chinese hamster ovary cell line expressing the human 5-HT1A receptor subtype (5-HT1A.CHO cells) was employed throughout this study. Cells were maintained in DMEM supplemented with 10% fetal calf serum, non-essential amino acids and penicillin/ streptomycin.
Cells were grown to 95-100% confluency as a monolayer before membranes were harvested for binding studies. Cells were gently scraped from the culture plates, transferred to centrifuge tubes, and washed twice by centrifugation (2000 rpm for 10 min., 4°C) in buffer (50 mM Tris; pH 7.5). The resulting pellets were aliquoted and maintained at -80•C. On the day of assay, the cells were thawed on ice, and resuspended in buffer. Studies were conducted using [^3H]8-OH-DPAT as the radioligand. The binding assay was performed in 96 well microtiter plates in a final total volume of 250 µL of buffer. Comparison experiments werc performed by using 7 concentrations of unlabelled drug and a final ligand concentration of 1.5 nM. Nonspecific binding was determined in the presence of 10 µM 5HT. Saturation analysis was conducted by using [^3H]8-OH-DPAT at concentrations ranging from 0.3-30 nM. […]

[2] = biological target: T2, serotonin transporter (Rattus norvegicus, UniProt P31652); test: Serotonin transporter binding assay with 3H-paroxetine on frontal cortical membranes; design: species or system male Sprague-Dawley rats
T2 construct: frontal cortical membranes prepared from male Sprague-Dawley rats; from tissue; host or cells: frontal cortex of male Sprague-Dawley rats (membranes)
Method: A protocol similar to that used by Cheetham et al., Neuropharmacol., 32:737 (1993) was used to determine the affinity of compounds for the serotonin transporter. Briefly, frontal cortical membranes prepared from male Sprague-Dawley rats were incubated with ^3H-paroxetine (0.1 nM) for 60 min at 25°C. All tubes also contained either vehicle, test compound (one to eight concentrations), or a saturating concentration of fluoxetine (10 µM) to define […]. All reactions were terminated by the addition of ice cold Tris buffer followed by rapid filtration using a Tom Tech filtration device to separate bound from free ^3H-paroxetine. Bound radioactivity was quantitated using a Wallac 1205 Beta Plate® counter. Nonlinear regression analysis was used to determine IC50 values which were converted to Ki values using the method set forth in Cheng and Prusoff, Biochem. Pharmacol., 22:3099 (1973) ([…].

T2 sequence (P31652 whole entry): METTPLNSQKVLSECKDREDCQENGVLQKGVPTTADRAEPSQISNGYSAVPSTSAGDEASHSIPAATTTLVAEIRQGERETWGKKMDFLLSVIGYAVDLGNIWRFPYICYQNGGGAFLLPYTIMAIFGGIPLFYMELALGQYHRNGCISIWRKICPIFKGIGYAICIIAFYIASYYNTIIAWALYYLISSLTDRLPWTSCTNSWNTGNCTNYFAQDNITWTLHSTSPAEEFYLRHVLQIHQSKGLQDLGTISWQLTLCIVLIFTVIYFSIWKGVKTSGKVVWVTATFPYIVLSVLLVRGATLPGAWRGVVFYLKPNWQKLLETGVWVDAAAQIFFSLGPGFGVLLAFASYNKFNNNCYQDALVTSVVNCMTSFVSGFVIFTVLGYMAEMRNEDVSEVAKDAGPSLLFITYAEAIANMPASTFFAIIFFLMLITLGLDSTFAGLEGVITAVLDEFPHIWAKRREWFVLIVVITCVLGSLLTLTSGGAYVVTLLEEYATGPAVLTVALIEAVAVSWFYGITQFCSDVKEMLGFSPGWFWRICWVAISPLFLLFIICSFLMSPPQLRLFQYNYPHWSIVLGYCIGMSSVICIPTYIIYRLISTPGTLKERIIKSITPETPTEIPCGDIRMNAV

Row | Structure (SMILES) | 5-HT1A (Ki, nM) [1] | Ki [2] | ST (Ki, nM,) ([2]; @ 100 nM, 3H-paroxetine, rat frontal cortical membranes)
1 | COc1ccsc1C1=CCN([C@H]2CC[C@@H](c3c[nH]c4ccc(F)cc43)CC2)CC1 [Example 1, 5-Fluoro-3-{(1,4-cis)-4-[4-(3-methoxy-thiophen-2-yl)-3,6-dihydro-2H-pyridin-1-yl]-cyclohexyl}-1H-indole] | 48% @ 1000 nM | 2.5 nM | –
2 | COc1ccsc1C1=CCN([C@H]2CC[C@H](c3c[nH]c4ccc(F)cc43)CC2)CC1 [Example 2, 5-Fluoro-3-{(1,4-trans)-4-[4-(3-methoxy-thiophen-2-yl)-3,6-dihydro-2H-pyridin-1-yl]-cyclohexyl}-1H-indole] | – | – | 18% @ 100 nM
